Reference: PubChem BioAssay AID624129 (Sanford-Burnham Center for Chemical Genomics, 2012)
Calls of active or inactive are those of the source. How the calls were made is not given here.

Experiments:
Test in all cases: potency against CXCR6 with APJ panel – cell-based, beta-arrestin, DiscoveRx, uHTS hits, dose response (AID 624129)
[1] = target: Apelin receptor (Homo sapiens) (UniProt P35414); settings: CXCR6 beta-arrestin (DiscoveRx) antagonist cell assay, APJ
[2] = target: C-C chemokine receptor type 6 (Homo sapiens) (UniProt P51684); settings: CXCR6 beta-arrestin (DiscoveRx) antagonist cell assay
[3] = target: Beta-galactosidase (Escherichia coli) (UniProt Q8VNN2); settings: CXCR6 beta-arrestin (DiscoveRx) antagonist cell assay, b-galactosidase
[4] = target: C-X-C chemokine receptor type 6 (Homo sapiens) (UniProt O00574); settings: CXCR6 beta-arrestin (DiscoveRx) antagonist cell assay; for inhibition: CXCR6, run 1, dose range 2, at 80 µM (top of the series)
[5] = dose range 1, mean IC50 across replicates
[6] = CCR6, dose range 1, mean IC50 across replicates
[7] = CXCR6, dose range 1, mean IC50 across replicates

Sequence of Beta-galactosidase (Escherichia coli) (Q8VNN2 whole entry, looked up): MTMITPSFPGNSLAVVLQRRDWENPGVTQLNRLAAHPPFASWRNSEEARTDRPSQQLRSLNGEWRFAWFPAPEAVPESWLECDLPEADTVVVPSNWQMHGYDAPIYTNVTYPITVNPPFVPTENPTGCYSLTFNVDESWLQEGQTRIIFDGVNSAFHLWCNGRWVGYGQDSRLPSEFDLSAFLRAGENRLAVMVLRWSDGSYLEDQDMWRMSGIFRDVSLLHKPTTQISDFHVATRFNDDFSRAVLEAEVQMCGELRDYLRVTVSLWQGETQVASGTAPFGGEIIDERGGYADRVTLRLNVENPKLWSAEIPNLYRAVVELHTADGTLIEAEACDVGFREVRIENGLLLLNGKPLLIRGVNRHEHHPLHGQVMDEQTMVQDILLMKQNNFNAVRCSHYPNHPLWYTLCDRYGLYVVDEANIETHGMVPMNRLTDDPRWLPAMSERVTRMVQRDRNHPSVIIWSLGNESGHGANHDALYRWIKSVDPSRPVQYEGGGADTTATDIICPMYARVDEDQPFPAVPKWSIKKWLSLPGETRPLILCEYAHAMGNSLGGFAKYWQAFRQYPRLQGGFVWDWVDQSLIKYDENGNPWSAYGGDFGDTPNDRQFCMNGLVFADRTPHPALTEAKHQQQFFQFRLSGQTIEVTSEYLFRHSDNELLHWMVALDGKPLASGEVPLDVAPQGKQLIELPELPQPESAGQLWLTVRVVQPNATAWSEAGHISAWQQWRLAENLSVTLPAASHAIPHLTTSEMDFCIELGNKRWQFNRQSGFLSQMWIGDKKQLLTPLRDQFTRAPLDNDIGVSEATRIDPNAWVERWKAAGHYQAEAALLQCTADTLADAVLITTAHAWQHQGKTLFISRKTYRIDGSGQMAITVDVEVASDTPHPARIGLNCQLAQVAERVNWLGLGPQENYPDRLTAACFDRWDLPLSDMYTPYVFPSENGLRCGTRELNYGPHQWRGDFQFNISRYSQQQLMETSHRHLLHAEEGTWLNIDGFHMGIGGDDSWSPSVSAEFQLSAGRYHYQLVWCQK
Sequence of C-X-C chemokine receptor type 6 (Homo sapiens) (O00574 whole entry, looked up): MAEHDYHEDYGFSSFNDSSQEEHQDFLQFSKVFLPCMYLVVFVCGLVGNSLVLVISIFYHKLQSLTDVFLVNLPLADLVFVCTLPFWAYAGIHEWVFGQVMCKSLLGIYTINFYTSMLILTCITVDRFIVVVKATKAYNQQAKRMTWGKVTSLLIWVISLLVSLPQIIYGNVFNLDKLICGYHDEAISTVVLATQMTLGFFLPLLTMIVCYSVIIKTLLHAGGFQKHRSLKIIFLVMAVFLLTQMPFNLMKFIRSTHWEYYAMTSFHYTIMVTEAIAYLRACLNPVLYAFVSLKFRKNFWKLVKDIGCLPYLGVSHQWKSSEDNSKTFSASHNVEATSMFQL

| SMILES | IC50 ([1]; dose range 1) | IC50 [1, 5] [µM] | IC50 ([1]; run 2, dose range 1) [µM] | IC50 ([1]; run 3, dose range 1) [µM] | IC50 ([2]; CCR6, dose range 1) | IC50 [2, 6] [µM] | IC50 ([2]; CCR6, run 2, dose range 1) [µM] | IC50 ([3]; dose range 1) | IC50 [3, 5] [µM] | IC50 ([4]; CXCR6, dose range 1) | IC50 [4, 7] [µM] | IC50 ([4]; CXCR6, run 1, dose range 2) [µM] | IC50 ([4]; CXCR6, run 2, dose range 1) [µM] | IC50 ([4]; CXCR6, run 2, dose range 2) [µM] | inhibition [4] [%] |
| --- | --- | --- | --- | --- | --- | --- | --- | --- | --- | --- | --- | --- | --- | --- | --- |
| COC(=O)c1ccc2c(c1)C(C)(C)C(/C=C/c1ccccc1O)=[N+]2C | 16.2 µM | 15.9 | 14.1 | 17.3 | 10.3 µM | 11.3 | 12.3 | 24.2 µM | 24.2 | inactive | 11.7 | 8.94 | 13.5 | 9.88 | – |
| Oc1c(Br)cc(Br)cc1C=NCc1ccccc1 | 17 µM | 17.9 | 21.6 | 15.1 | 16.8 µM | 18.6 | 20.5 | 28.5 µM | 28.5 | inactive | 18.1 | 10.2 | 22.9 | 10.6 | – |
| CCOc1ccccc1NC(=O)c1nc(S(=O)(=O)Cc2ccccc2)ncc1Cl | 13.4 µM | 13.4 | 13.4 | > 80 | 8.24 µM | 7.46 | 6.69 | > 80 µM (inactive) | > 80 | 9.59 µM | 10.7 | 11.2 | 11.5 | 10.7 | – |
| COc1cc(C(=O)NC2CC3CCCC(C2)N3CC(=O)Nc2ccccc2)cc(OC)c1OC (stereo unspecified) | > 80 µM (inactive) | > 80 | > 80 | > 80 | > 80 µM (inactive) | > 80 | > 80 | > 80 µM (inactive) | > 80 | 13.5 µM | 10.7 | 12.3 | 10.7 | 6.07 | – |
| Cn1c(=O)c([N+](=O)[O-])c(Cl)c2ccccc21 | 16.4 µM | 29.4 | 42.5 | > 80 | 16.2 µM | 21.7 | 27.1 | > 80 µM (inactive) | > 80 | inactive | 22.2 | – | > 80 | – | 116 |
| O=C(CSc1cccc2cccnc12)N/N=C/c1cccnc1 | 3.95 µM | 4.26 | 4.72 | 4.11 | 4.18 µM | 5.05 | 5.92 | > 80 µM (inactive) | > 80 | 6.91 µM | 4.34 | 3.34 | 4.25 | 2.87 | – |
| COc1ccc(CCN2C(=O)C=CC2=O)cc1OC | 9.45 µM | 21.1 | 8.84 | 45.1 | 4.86 µM | 6.32 | 7.78 | > 80 µM (inactive) | > 80 | 9.39 µM | 8.38 | – | 7.37 | – | 122 |
| O=c1oc2ccccc2c(Cl)c1CN1CCCCC1 | 13.2 µM | 17.9 | 21.6 | 18.9 | 5.59 µM | 6.07 | 6.55 | 25.6 µM | 25.6 | 7.83 µM | 7.76 | – | 7.68 | – | 125 |
| O=C(Nc1nc(-c2ccccn2)cs1)Nc1ccc(F)cc1F | 8.6 µM | 9.05 | 9.65 | 8.89 | 8.74 µM | 10.1 | 11.5 | > 80 µM (inactive) | > 80 | 11.4 µM | 8.93 | 5.96 | 11.5 | 6.87 | – |
| CNC(=O)c1nnsc1S(=O)(=O)c1ccc(Cl)cc1 | 14.3 µM | 15.7 | 16.1 | 16.5 | 10.5 µM | 12 | 13.5 | > 80 µM (inactive) | > 80 | inactive | 12.1 | – | 10.7 | – | 116 |
| COc1ccc(NC(=O)/C(Cl)=C(/Cl)S(=O)Cc2ccccc2)cn1 (stereo unspecified) | 10.7 µM | 22.5 | 7.69 | 49 | 5.44 µM | 5.05 | 4.67 | > 80 µM (inactive) | > 80 | 6.13 µM | 6.54 | 6.75 | 6.11 | 7.15 | – |
| CN(C)c1nc(=NCc2cccs2)ss1 | 3.71 µM | 3.68 | > 80 | 3.66 | 3.66 µM | 2.37 | 1.07 | > 80 µM (inactive) | > 80 | 4.99 µM | 5.43 | – | 5.86 | – | 53 |
| O=C(Nc1ccccc1Cl)/C(Cl)=C(\Cl)S(=O)c1ccccc1 (stereo unspecified) | 12.7 µM | 11.7 | 11.9 | 10.5 | 8.58 µM | 8.32 | 8.05 | > 80 µM (inactive) | > 80 | 9.69 µM | 9.93 | 9.44 | 10.4 | 10.2 | – |
| C/C(=N\NC(=O)C(C)Oc1ccc([N+](=O)[O-])cc1)c1ccccn1 (stereo unspecified) | 3.43 µM | 8.09 | 3.41 | 17.4 | 2.61 µM | 3.11 | 3.6 | > 80 µM (inactive) | > 80 | 6.22 µM | 3.92 | 2.75 | 4.5 | 2.23 | – |
| CCOc1ccc2nc(NC(=O)c3ccccn3)sc2c1 | 11.7 µM | 19.5 | 35 | 11.8 | 7.32 µM | 8.78 | 10.2 | > 80 µM (inactive) | > 80 | inactive | 13.5 | – | 12.7 | – | 92.1 |
| COCc1cc(=O)[nH]c(Nc2nc3ccc(C)cc3o2)n1 | 4.2 µM | 7.6 | > 80 | 11 | 3.97 µM | 4.52 | 5.08 | > 80 µM (inactive) | > 80 | – | 3.61 | 3.3 | > 80 | 3.93 | – |
| Cc1nnc(Sc2cc(NCCCO)c([N+](=O)[O-])c3nonc23)s1 | 12.9 µM | 11.6 | 11.3 | 10.6 | 8.94 µM | 8.16 | 7.38 | > 80 µM (inactive) | > 80 | 7.25 µM | 7.84 | 8.37 | 9.54 | 6.2 | – |
| O=C(Nc1nnc(-c2cccs2)o1)c1cccc(C(F)(F)F)c1 | – | > 80 | > 80 | > 80 | – | > 80 | > 80 | > 80 µM (inactive) | > 80 | > 80 µM (inactive) | > 80 | – | > 80 | – | -55.9 |
| CC(=O)OCCNc1cc(SCc2ccco2)c2nonc2c1[N+](=O)[O-] | 21.1 µM | 18.8 | 17.8 | 17.5 | 13.8 µM | 14 | 14.2 | > 80 µM (inactive) | > 80 | inactive | 15.4 | – | 16.6 | – | 74.8 |
| CC(=NNc1nc2ccccc2s1)c1ncccn1 | 16.9 µM | 17.4 | 20.5 | 14.8 | 7.51 µM | 8.91 | 10.3 | > 80 µM (inactive) | > 80 | inactive | 11.3 | – | 10.5 | – | 125 |
| CNc1ccc2oc(C[C@H]3O[C@@]4(CC[C@H]3C)O[C@H]([C@H](C)C(=O)c3ccc[nH]3)[C@H](C)C[C@H]4C)nc2c1C(=O)O | 10.9 µM | 11.7 | 12.4 | > 80 | 6.14 µM | 6.15 | 6.16 | > 80 µM (inactive) | > 80 | 5.85 µM | 8.6 | 6.42 | 7.09 | 15 | – |
| CCC(=O)OCCNc1cc(Sc2nc3ccccc3s2)c2nonc2c1[N+](=O)[O-] | 32.9 µM | 28 | 23.1 | > 80 | 8.93 µM | 8.72 | 8.5 | > 80 µM (inactive) | > 80 | 8.94 µM | 8.4 | 10 | 8.87 | 5.77 | – |
